Data taken from patent US20100075370A1, “METHOD FOR DETERMINATION OF CELL VIABILITY BY USING FLOW CYTOMETRY WITH FIXED VOLUME ACQUISITION” (TUMORTEC GMBH, priority 2006, published 2010).

What was measured:
[1] = tested on: Peripheral blood mononuclear cells (pBMC) from a patient with chronic lymphatic leukaemia; experiment: Cytotoxicity of fludarabine phosphate on mononuclear cells, flow cytometry with fixed volume acquisition (PI exclusion); format: cell-based, human; details: 96 h; for relative cell survival: 100% = without fludarabine phosphate
Description: The peripheral blood mononuclear cells (pBMC) used in the examples were isolated from peripheral blood samples as described before (Staib, P. et al., Br. J. Haematol., 128(6):783-91 (2005)). The necessary peripheral blood (PB) samples from adult patients diagnosed with chronic lymphatic leukaemia (CLL) were collected into heparin during routine diagnosis prior to administration of chemotherapy.
Plate precoating with different amounts of fludarabine phosphate: 50 μl/well of an aqueous fludarabine phosphate solution were given in a 96-well microtiter plate (Greiner BioOne, Frickenhausen, Germany). Four different fludarabine phosphate concentrations (25; 8.33; 2.78; 0.93 μg/ml) were used. The control wells were kept empty. The plates were placed into an exsiccator and dried under vacuum for 8 h.
Peripheral blood mononuclear cells (pBMC) from a patient with chronic lymphatic leukaemia were isolated from the PB samples as described before (Staib, P. et al., Br. J. Haematol., 128(6):783-91 (2005)), resuspended in RPMI 1640 medium (Biochrom, Berlin, Germany) containing 20 vol. % fetal calf serum (FCS; Biochrom, Berlin, Germany) and added into the precoated 96-well plate with a final cell concentration of 10,000 cells/well and a volume of 100 μl. The plates were then agitated for 15 min in order to solubilize the dried fludarabine phosphate. Subsequently, the plates were incubated for 96 h (37° C., 5% CO2, humidified atmosphere). Thereafter, 50 μl of an 11 μM propidium iodide (PI)-solution in 0.9% aqueous NaCl solution (NaCl 0.9%) (Invitrogen, Leiden, Netherlands) were added and incubated for 15 min at room temperature. PI is a standard flow cytometric viability probe and is used to distinguish viable from nonviable cells. Viable cells with intact membranes exclude PI, whereas the membranes of dead and damaged cells are permeable to PI. PI only stains cells with compromised cell membrane, whilst live cells which have intact membranes are not stained by PI.
The plates were then analyzed using a FACSArray (BD Biosciences, San Jose, Calif., USA) flow cytometer. The following instrument settings were used:
2.0 μl/s sample flow rate
20 μl sample volume (n. b.: this is no absolute amount, but the set value of the instrument. Thus, the actual volume aspirated and analyzed by the instrument may be higher or lower than 20 μl: however, this actual volume is invariant from sample to sample during the analysis.)
500,000 maximum events (i.e. the number of maximum events exceeds the actual cell number in the sample considerably)
An identical fixed volume (preset sample volume on instrument: 20 μl) was aspirated from each sample and the absolute amount of living cells was counted. Living cells were defined as events with cellular light scatter characteristics and being negative for PI.
After switch-on and before analyzing a new kind of sample the flow cytometer must be re-calibrated. […] In addition cut-off values can be defined. Signals below this cut-off will be excluded from data acquisition. All cells with signal intensities above the cut-off are counted. The rectangle shown in FIG. 1 defines an area of signal intensities (FSC signal and PI signal) that is suitable for counting viable cells. All cells within this rectangle are counted.

[2] = tested on: pBMC from patients with CLL; experiment: Cytotoxicity of several antineoplastic agents on pBMC (LC90), fixed volume flow cytometry; format: cell-based, human; details: in µg/mL
Excerpt: The necessary peripheral blood (PB) samples from adult patients diagnosed with chronic lymphatic leukaemia (CLL) were collected into heparin during routine diagnosis prior to administration of chemotherapy.

[3] = 12.50 μg/ml final concentration

For `Nc1nc(F)nc2c1ncn2[C@@H]1O[C@H](COP(=O)(O)O)[C@@H](O)[C@@H]1O` [Fludarabine phosphate, 2-Fluoro-9-(5-O-phosphono-β-D-arabinofuranosyl)-9H-purin-6-amine], the “Total living cells counted in the fixed volume” value (“Total living cells counted” for short) ([1]; 0.46 μg/ml final concentration) was 1,725, the relative cell survival ([1]; 0.46 μg/ml final concentration) was 41% and the “Total living cells counted” value ([1]; 1.39 μg/ml final concentration) was 758. The relative cell survival ([1]; 1.39 μg/ml final concentration) was 18%, the “Total living cells counted” value ([1]; 4.17 μg/ml final concentration) was 347 and the relative cell survival ([1]; 4.17 μg/ml final concentration) was 8%. For the same molecule, the “Total living cells counted” value [1, 3] was 186, the relative cell survival [1, 3] was 4% and the relative cell survival ([1]; 12.50 μg/ml final concentration, listed as fludarabine phosphate) was 4%. It also gave an LC90 ([2]; pBMC of CLL patient #1, ex vivo) of 69.69, an LC90 ([2]; pBMC of CLL patient #2, ex vivo) of 11.74 and an LC90 ([2]; pBMC of CLL patient #3, ex vivo) of 0.09. For the same molecule, the LC90 ([2]; pBMC of CLL patient #4, ex vivo) was 26.00, the LC90 ([2]; pBMC of CLL patient #5, ex vivo) was 0.46 and the LC90 ([2]; pBMC of CLL patient #6, ex vivo) was 18.17. The LC90 ([2]; pBMC of CLL patient #7, ex vivo) was 13.25, the LC90 ([2]; pBMC of CLL patient #8, ex vivo) was 15.02 and the LC90 ([2]; pBMC of CLL patient #9, ex vivo) was 0.94. It also gave an LC90 ([2]; pBMC of CLL patient #10, ex vivo) of 0.01, an LC90 ([2]; pBMC of CLL patient #11, ex vivo) of 2.15 and an LC90 ([2]; pBMC of CLL patient #12, ex vivo) of 0.33. For the same molecule, the LC90 ([2]; pBMC of CLL patient #13, ex vivo) was 0.82, the LC90 ([2]; pBMC of CLL patient #14, ex vivo) was 0.86 and the LC90 ([2]; pBMC of CLL patient #15, ex vivo) was 0.58. The LC90 ([2]; pBMC of CLL patient #16, ex vivo) was 0.22, the LC90 ([2]; pBMC of CLL patient #17, ex vivo) was 0.55 and the LC90 ([2]; pBMC of CLL patient #18, ex vivo) was 0.55. For the same molecule, the LC90 ([2]; pBMC of CLL patient #19, ex vivo) was 0.50, the LC90 ([2]; pBMC of CLL patient #20, ex vivo) was 0.00 and the LC90 ([2]; pBMC of CLL patient #21, ex vivo) was 0.11. For the same molecule, the LC90 ([2]; pBMC of CLL patient #22, ex vivo) was 81.92, the LC90 ([2]; pBMC of CLL patient #23, ex vivo) was 0.01 and the LC90 ([2]; pBMC of CLL patient #24, ex vivo) was 23.76. For the same molecule, the LC90 ([2]; pBMC of CLL patient #25, ex vivo) was 35.21.
